Measured values taken from patent EP1247448A2 (priority 1998, dated 1999).
Values joined by “and” are separate entries in the source; they are usually repeats but may differ in a detail not shown here. Equal values may be shown once. Read-outs that look alike come from different tables or passages of the source.

What was measured:
[1] = test system: tomato late blight (TLB), Phytophthora infestans; assay type: in vivo; settings: for TLB obs. % Control: Table 3a
Tomato Late Blight [2] = assay type: in vivo, Phytophthora infestans; settings: Table 6a
[3] = test system: grape downy mildew, Plasmopara viticola; test: Grape downy mildew control on Delaware grapes (Example 6b); assay type: in vivo; settings: Table 6b
Protocol: Tissue culture produced from Delaware grapes were sprayed with the fungicides. Inoculation with grape downy mildew (GDM) spores having a concentration of 40,000 spores ml was conducted 1 day after the application. Plants were placed in a mist chamber for 24 hrs and then moved to a control temperature chamber for the remainder of the test period. Table 6b -

Tomato Late Blight [4] = assay type: in vivo, Phytophthora infestans; settings: Table 4a
Cucumber Downy Mildew [5] = test: Cucumber downy mildew control on cucumber plants (Example 4); assay type: in vivo, Pseudoperonospora cubensis; settings: Table 4b
Cucumber Downy Mildew [6] = test system: Cucumber Downy Mildew; design: species or system Pseudoperonospora cubensis; settings: in vivo
[7] = test system: Phytophthora infestans on potatoes (PLB); assay type: in vivo; settings: Table 5b
Phytophthora capsici = Phytophthora capsici colony growth inhibition on potato dextrose agar (Examples 1 and 2); assay type: cell-based, Phytophthora capsici (ATCC 15399)

CCO[PH](=O)O [Cmpd. E, Fosetyl-aluminum, reference compound]
TLB obs. % Control ([1]; 0.112 kg ai/ha): 30.9% | TLB obs. % Control ([1]; 0.225 kg ai/ha): 14.3% | TLB obs. % Control ([1]; 0.45 kg ai/ha): 57.1% | TLB obs. % Control ([1]; 0.9 kg ai/ha): 54.8%

O=[N+]([O-])c1cc(C(F)(F)F)c(Cl)c([N+](=O)[O-])c1Nc1ncc(C(F)(F)F)cc1Cl [Cmpd. H, Fluazinam, reference compound]
% Control Observed (Tomato Late Blight [2]; 0.125 Kg ai/ha): 20% | % Infection (Tomato Late Blight [2]; 0.125 Kg ai/ha): 64% | % Control Observed ([3]; Cmpd. H 0.006 Kg ai/ha): 52%

CCCOC(=O)NCCCN(C)C [Cmpd. F, Propamocarb, reference compound]
% Control Observed (Tomato Late Blight [4]; 0.063 Kg ai/ha): 0% | % Control Observed (Tomato Late Blight [4]; 0.125 Kg ai/ha): 3% | % Control Observed (Tomato Late Blight [4]; 0.25 Kg ai/ha): 17% | % Control Observed (Cucumber Downy Mildew [5]; 0.063 Kg ai/ha): 9% | % Control Observed (Cucumber Downy Mildew [5]; 0.125 Kg ai/ha): 0% | % Control Observed (Cucumber Downy Mildew [5]; 0.25 Kg ai/ha): 27%

O=C1c2ccccc2C(=O)N1SC(Cl)(Cl)Cl [Cmpd. G, Folpet, reference compound]
Number of Infection Sites (Cucumber Downy Mildew [6]): 16 and 22.2 and 19.2 | % Control Observed ([7]; 0.225 Kg ai/ha): 0% | % Control Observed ([7]; 0.45 Kg ai/ha): 3.5%

O.O.O.O.O.O=S(=O)([O-])[O-].[Cu+2] [Compound D, CuSO4·5H2O, reference compound]
% Inhibition (Observed) (Phytophthora capsici; Table 2, Compound D 100 ppm, Compound A 0 ppm): 15.6% | % Inhibition (Observed) (Phytophthora capsici; Table 2, Compound D 200 ppm, Compound A 0 ppm): 47.0% | % Inhibition (Observed) (Phytophthora capsici; Table 2, Compound D 300 ppm, Compound A 0 ppm): 59.2%

CCC(C)(NC(=O)c1cc(Cl)c(C)c(Cl)c1)C(=O)CCl (stereo not shown) [Compound A, N-[3'-(1'-chloro-3'-methyl-2'-oxopentan)]-3,5-dichloro-4-methylbenzamide]
% Inhibition (Observed) (Phytophthora capsici; Table 1, Compound A 0.2 ppm, Compound C 0 ppm): 34.1% | % Inhibition (Observed) (Phytophthora capsici; Table 1, Compound A 0.3 ppm, Compound C 0 ppm): 52.8% | % Inhibition (Observed) (Phytophthora capsici; Table 2, Compound A 0.1 ppm, Compound D 0 ppm): 21.6% | % Inhibition (Observed) (Phytophthora capsici; Table 2, Compound A 0.2 ppm, Compound D 0 ppm): 31.0% | % Inhibition (Observed) (Phytophthora capsici; Table 2, Compound A 0.3 ppm, Compound D 0 ppm): 44.0% | control of tomato late blight ([1]; Example 3a, alone at all rates tested): ≥ 95% | TLB obs. % Control ([1]; 0.0125 kg ai/ha): 97.1% | TLB obs. % Control ([1]; 0.025 kg ai/ha): 96.7% | TLB obs. % Control ([1]; 0.05 kg ai/ha): 96.7% | TLB obs. % Control ([1]; 0.1 kg ai/ha): 97.1% | % Control Observed (Tomato Late Blight [4]; 0.006 Kg ai/ha): 23% | % Control Observed (Tomato Late Blight [4]; 0.012 Kg ai/ha): 20% | % Control Observed (Tomato Late Blight [4]; 0.025 Kg ai/ha): 36% | % Control Observed (Cucumber Downy Mildew [5]; 0.006 Kg ai/ha): 56% | % Control Observed (Cucumber Downy Mildew [5]; 0.012 Kg ai/ha): 33% | % Control Observed (Cucumber Downy Mildew [5]; 0.025 Kg ai/ha): 45% | % Control Observed (Cucumber Downy Mildew [6]): 74.3% and 84.8% and 98.1% | % Control Observed ([7]; 0.05 Kg ai/ha): 12% | % Control Observed ([7]; 0.10 Kg ai/ha): 16% | % Control Observed (Tomato Late Blight [2]; 0.025 Kg ai/ha): 84% | % Infection (Tomato Late Blight [2]; 0.025 Kg ai/ha): 13.2% | % Control Observed ([3]; Cmpd. A 0.006 Kg ai/ha): 22%

OP(O)O [Compound C, Phosphorous Acid, reference compound]
% Inhibition (Observed) (Phytophthora capsici; Table 1, Compound C 70 ppm, Compound A 0 ppm): 48.3% | % Inhibition (Observed) (Phytophthora capsici; Table 1, Compound C 100 ppm, Compound A 0 ppm): 72.1%
